Experiment [1] has as its target cloned human SERT receptor (Homo sapiens, UniProt P31645). Put plainly: Determination of Ki at SERT receptor (SPA binding, [3H]-Citalopram). The settings on record: HEK293 recombinant cells, [3H]-Citalopram 2 nM, read-out: Ki hSERT. As to the method:
(§1) Compounds were tested according to the following procedure.
• Receptor source: Recombinant mammalian cells (HEK293) • Radioligand: [^3H]-Citalopram (80.8 Ci/mmol) • Final ligand concentration: 2 nM • Non-specific determinant: 0.1 mM Venlafaxine • Reference compound: Venlafaxine • Positive control: Venlafaxine Incubation Conditions:
Reactions were carried out in buffer with pH 7.4 containing 50 mM Tris-HCl, 150 mM NaCl, 5 mM KCl and scintillation proximity assay (SPA) beads (0.1 mg/well) for 3 h at r.t. Radioactivity proximal to SPA beads was determined by scintillation proximity assay and compared to the control values in order to ascertain any interactions of the test compound(s) with cloned human SERT receptor binding site.
Reference: Journal of Pharmacology and Experimental Therapeutics, 1987, 242 (1), 364-371.

For experiment [2], the target named is T1, cloned human 5-HT1A receptor (Homo sapiens, UniProt P08908).
T1 construct: expressed in transfected cells; host or cells: HEK293-EBNA
T1 sequence (P08908 1-422): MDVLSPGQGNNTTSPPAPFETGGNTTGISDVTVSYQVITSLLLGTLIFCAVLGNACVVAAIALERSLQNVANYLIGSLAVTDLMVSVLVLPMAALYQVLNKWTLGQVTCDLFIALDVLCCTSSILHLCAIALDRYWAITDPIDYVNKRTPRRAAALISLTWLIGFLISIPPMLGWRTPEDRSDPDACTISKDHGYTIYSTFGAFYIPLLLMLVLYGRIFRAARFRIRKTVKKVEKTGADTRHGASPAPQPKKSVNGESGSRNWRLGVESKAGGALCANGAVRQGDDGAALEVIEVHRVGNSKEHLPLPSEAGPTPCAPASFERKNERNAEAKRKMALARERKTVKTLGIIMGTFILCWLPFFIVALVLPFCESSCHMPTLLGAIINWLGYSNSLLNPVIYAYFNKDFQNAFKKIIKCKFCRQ
Briefly: Determination of Ki at 5-HT1A receptor (radioligand binding, [3H]-8-Hydroxy DPAT). Conditions: HEK293-EBNA recombinant cells; [3H]-8-Hydroxy DPAT 0.8 nM; read-out: Ki h5-HT1A. The procedure:
as §1
• Receptor source: Recombinant mammalian cells (HEK293-EBNA) • Radioligand: [^3H]-8-Hydroxy DPAT (200 Ci/mmol) • Final ligand concentration: 0.8 nM • Non-specific determinant: 0.1 mM U92016A • Reference compound: U92016A • Positive control: U92016A Incubation Conditions:
Reactions were carried out in buffer with pH 7.4 containing 50 mM Tris-HCl, 0.5 mM EDTA, 10 mM MgSO4, 0.1% Ascorbic acid for 2 h at r.t. The reaction was terminated by rapid vacuum filtration onto the glass fiber filters. Radioactivity trapped onto the filters was determined and compared to the control values in order to ascertain any interactions of the test compound(s) with cloned human 5-HT1A receptor binding site.

Experiment [3] concerns the target T2, cloned human 5-HT2A receptor (Homo sapiens, UniProt P28223).
T2 construct: expressed in transfected cells; host or cells: CHO-K1
Briefly: Determination of Ki at 5-HT2A receptor (radioligand binding, [3H]-Ketanserine). The settings on record: CHO-K1 recombinant cells; [3H]-Ketanserine 1.25 nM; read-out: Ki h5-HT2A. The procedure:
as §1
• Receptor source: Recombinant mammalian cells (CHO-K1) • Radioligand: [^3H]-Ketanserine (41.9 Ci/mmol) • Final ligand concentration: 1.25 nM • Non-specific determinant: 0.1 mM 1-Napthyl piperazine (1-NP) • Reference compound: 1-Napthyl piperazine (1-NP) • Positive control: 1-Napthyl piperazine (1-NP) Incubation Conditions:
Reactions were carried out in buffer with pH 7.4 containing 50 mM Tris-HCl, 4 mM CaCl2), 0.1% Ascorbic acid for 1 h at r.t. The reaction was terminated by rapid vacuum filtration onto the glass fiber filters. Radioactivity trapped onto the filters was determined and compared to the control values in order to ascertain any interactions of the test compound(s) with cloned human 5-HT2A receptor binding site.

Experiment [4] concerns the target T3, hD2S (cloned human dopamine D2S receptor) (Homo sapiens, UniProt P14416).
T3 construct: expressed in transfected cells; host or cells: CHO-K1
Put plainly: Determination of Ki at D2S receptor (radioligand binding, [3H]-Raclopride). Conditions: CHO-K1 recombinant cells; [3H]-Raclopride 4 nM; read-out: Ki hD2S. As to the method:
as §1
• Receptor source: Recombinant mammalian cells (CHO-K1) • Radioligand: [^3H]-Raclopride (80.8 Ci/mmol) • Final ligand concentration: 4 nM • Non-specific determinant: 0.1 mM Haloperidol • Reference compound: Haloperidol • Positive control: Haloperidol Incubation Conditions:
Reactions were carried out in buffer with pH 7.4 containing 50 mM Tris-HCl, 120 mM NaCl, 5 mM KCl, 5 mM MgCl2, 1 mM EDTA for 2 h at r.t. The reaction was terminated by rapid vacuum filtration onto the glass fiber filters. Radioactivity trapped onto the filters was determined and compared to the control values in order to ascertain any interactions of the test compound(s) with cloned human dopamine […] receptor binding site.

Structures can show the parent of a compound that is named as a salt. Where two headings read alike, the source gives them in different places. Where only a bound is given, the exact number is not on record here.

T2 sequence (P28223 whole entry): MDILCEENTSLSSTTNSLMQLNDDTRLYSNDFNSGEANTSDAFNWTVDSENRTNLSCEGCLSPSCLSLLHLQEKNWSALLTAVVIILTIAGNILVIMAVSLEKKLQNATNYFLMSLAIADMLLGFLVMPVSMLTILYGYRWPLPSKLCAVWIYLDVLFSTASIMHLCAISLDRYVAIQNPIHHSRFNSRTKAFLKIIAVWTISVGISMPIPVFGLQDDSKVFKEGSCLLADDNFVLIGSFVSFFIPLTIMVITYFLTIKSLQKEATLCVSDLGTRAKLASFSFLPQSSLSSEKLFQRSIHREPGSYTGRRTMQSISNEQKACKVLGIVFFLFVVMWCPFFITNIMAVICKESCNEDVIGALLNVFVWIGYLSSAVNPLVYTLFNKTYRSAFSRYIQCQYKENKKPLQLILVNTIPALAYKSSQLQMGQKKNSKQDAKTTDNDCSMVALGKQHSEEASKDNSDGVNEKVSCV
Chain of cloned human SERT receptor (P31645 whole entry): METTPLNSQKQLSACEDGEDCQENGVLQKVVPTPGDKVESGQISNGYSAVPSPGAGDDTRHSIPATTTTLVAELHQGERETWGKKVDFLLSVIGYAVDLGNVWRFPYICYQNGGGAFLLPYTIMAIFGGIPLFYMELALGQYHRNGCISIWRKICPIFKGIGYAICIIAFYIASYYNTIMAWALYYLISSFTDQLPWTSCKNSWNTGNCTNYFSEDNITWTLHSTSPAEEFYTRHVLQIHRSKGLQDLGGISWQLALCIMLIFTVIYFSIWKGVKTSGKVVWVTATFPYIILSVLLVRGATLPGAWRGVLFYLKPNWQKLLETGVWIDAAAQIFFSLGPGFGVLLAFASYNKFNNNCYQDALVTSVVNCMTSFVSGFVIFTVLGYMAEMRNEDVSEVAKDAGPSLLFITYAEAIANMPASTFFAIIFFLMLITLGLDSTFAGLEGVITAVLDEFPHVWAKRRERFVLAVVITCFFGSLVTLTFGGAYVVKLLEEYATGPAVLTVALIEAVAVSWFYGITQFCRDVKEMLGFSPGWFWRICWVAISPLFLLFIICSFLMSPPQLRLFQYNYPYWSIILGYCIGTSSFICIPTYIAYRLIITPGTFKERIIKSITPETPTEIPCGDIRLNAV
T3 sequence (P14416 1-414 isoform P14416-2): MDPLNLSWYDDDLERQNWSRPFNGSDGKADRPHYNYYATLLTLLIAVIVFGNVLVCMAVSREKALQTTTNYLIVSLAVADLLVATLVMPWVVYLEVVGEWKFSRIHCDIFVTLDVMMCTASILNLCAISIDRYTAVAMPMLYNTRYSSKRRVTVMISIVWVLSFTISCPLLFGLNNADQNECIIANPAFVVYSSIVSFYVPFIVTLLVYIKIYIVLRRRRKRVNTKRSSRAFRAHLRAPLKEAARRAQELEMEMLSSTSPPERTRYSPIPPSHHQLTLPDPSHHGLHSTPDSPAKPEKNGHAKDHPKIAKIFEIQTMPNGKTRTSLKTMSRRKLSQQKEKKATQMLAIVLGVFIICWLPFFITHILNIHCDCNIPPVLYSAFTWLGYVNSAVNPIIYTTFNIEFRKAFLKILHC

For the compound `O=C1C[C@@H]2CCCN2C(=O)N1CCCCN1CCC(c2c[nH]c3ccc(F)cc23)CC1` [Example 7, 2-{4-[4-(5-Fluoro-1H-indol-3-yl)-piperidin-1-yl]-butyl}-tetrahydro-pyrrolo[1,2-c]pyrimidine-1,3-dione oxalate], the Ki (usually the dissociation constant of the complex between target and ligand, obtained from inhibition or displacement) in experiment [1] is 0.0385 µM; in experiment [2], 1.8 nM; in experiment [3] it was 49.9 nM; in experiment [4], 4.5 nM.
Taken in the same sequence, the figures for `O=C1C[C@@H]2CCCCN2C(=O)N1CCCCN1CCN(c2nsc3ccccc23)CC1` [Example 12, 2-[4-(4-Benzo[d]isothiazol-3-yl-piperazin-1-yl)-butyl]-hexahydro-pyrido[1,2-c]pyrimidine-1,3-dione] were 0.181 µM, 0.1 nM, 0.6 nM and 0.6 nM.
Taken in the same sequence, the figures for `O=C1C[C@@H]2CCCCN2C(=O)N1CCCCN1CCC(c2noc3cc(F)ccc23)CC1` [Example 13, 2-{4-[4-(6-Fluoro-benzo[d]isoxazol-3-yl)-piperidin-1-yl]-butyl}-hexahydro-pyrido[1,2-c]pyrimidine-1,3-dione] were 1.63 µM, 14.9 nM, 2.5 nM and 2.5 nM.
For the compound `O=C1C[C@@H]2CCCCN2C(=O)N1CCCCN1CCC(c2c[nH]c3ccc(F)cc23)CC1` [Example 15, 2-{4-[4-(5-Fluoro-1H-indol-3-yl)-piperidin-1-yl]-butyl}-hexahydro-pyrido[1,2-c]pyrimidine-1,3-dione], the Ki in experiment [1] turned out to be 0.0269 µM; in experiment [2] it was 2.2 nM; in experiment [3], 53.6 nM; in experiment [4], 2.9 nM.
Taken in the same sequence, the figures for `COc1ccc2[nH]cc(C3CCN(CCCCN4C(=O)C[C@@H]5CCCCN5C4=O)CC3)c2c1` [Example 16, 2-{4-[4-(5-Methoxy-1H-indol-3-yl)-piperidin-1-yl]-butyl}-hexahydro-pyrido[1,2-c]pyrimidine-1,3-dione] were 0.427 µM, 0.6 nM, 1210 nM and 59.1 nM.
Taken in the same sequence, the figures for `O=C(OCc1ccccc1)N1CCN2C(=O)N(CCCCN3CCN(c4nsc5ccccc45)CC3)C(=O)C[C@@H]2C1` [Example 19, 7-[4-(4-Benzo[d]isothiazol-3-yl-piperazin-1-yl)-butyl]-6,8-dioxo-octahydro-pyrazino[1,2-c]pyrimidine-2-carboxylic acid benzyl ester] were 0.126 µM, 1.1 nM, 0.8 nM and 3.2 nM.
For the compound `O=C(OCc1ccccc1)N1CCN2C(=O)N(CCCCN3CCN(c4nsc5ccccc45)CC3)C(=O)C[C@@H]2C1` [Example 20, 7-[4-(4-Benzo[d]isothiazol-3-yl-piperazin-1-yl)-butyl]-6,8-dioxo-octahydro-pyrazino[1,2-c]pyrimidine-2-carboxylic acid benzyl ester fumarate], the Ki was 0.148 µM in experiment [1], 1.3 nM in experiment [2], 1.1 nM in experiment [3] and 2.7 nM in experiment [4].
The corresponding values for `O=C(OCc1ccccc1)N1CCN2C(=O)N(CCCCN3CCC(c4noc5cc(F)ccc45)CC3)C(=O)CC2C1` (stereo not shown) [Example 22, 7-{4-[4-(6-Fluoro-benzo[d]isoxazol-3-yl)-piperidin-1-yl]-butyl}-6,8-dioxo-octahydro-pyrazino[1,2-c]pyrimidine-2-carboxylic acid benzyl ester fumarate] are 0.279 µM, 84.1 nM, 1.5 nM and 2.5 nM.
The corresponding values for `O=C1C[C@@H]2CCCN2C(=O)N1CCCN1CCN(c2nsc3ccccc23)CC1` [Example 23, 2-[3-(4-benzo[d]isothiazol-3-yl-piperazin-1-yl)-propyl]tetrahydro-pyrrolo[1,2-c]pyrimidine-1,3-dione] are 0.918 µM, 21.4 nM, 5.3 nM and 22.3 nM.
On to `O=C1C[C@@H]2CCCN2C(=O)N1CCCN1CCC(c2noc3cc(F)ccc23)CC1` [Example 24, 2-{3-[4-(6-Fluoro-benzo[d]isoxazol-3-yl)-piperidin-1-yl]-propyl}-tetrahydro-pyrrolo[1,2-c]pyrimidine-1,3-dione], for which the Ki in experiment [1] (cells printed in μM) was over 10 µM; in experiment [2], 1690 nM; in experiment [3], 7.1 nM; in experiment [4], 103 nM.
In the case of `O=C1C[C@@H]2CCCN2C(=O)N1CCCN1CCC(c2c[nH]c3ccc(F)cc23)CC1` [Example 25, 2-{3-[4-(5-Fluoro-1H-indol-3-yl)-piperidin-1-yl]-propyl}-tetrahydro-pyrrolo[1,2-c]pyrimidine-1,3-dione], the Ki is 0.298 µM in experiment [1], 58.6 nM in experiment [2], 195 nM in experiment [3] and 23.8 nM in experiment [4].
Consider `O=C1C[C@H]2COCCN2C(=O)N1C[C@H]1CCCC[C@H]1CN1CCN(c2nsc3ccccc23)CC1` [Example 30, 7-[2-(4-Benzo[d]isothiazol-3-yl-piperazin-1-ylmethyl)-cyclohexylmethyl]-tetrahydro-pyrimido[6,1-c][1,4]oxazine-6,8-dione], for which the Ki in experiment [1] is 9.35 µM; in experiment [3], 8.5 nM; in experiment [4], 0.6 nM.
As for `COC(=O)N1CCN2C(=O)N(CCCCN3CCN(c4nsc5ccccc45)CC3)C(=O)C[C@@H]2C1` [Example 33, 7-[4-(4-Benzo[d]isothiazol-3-yl-piperazin-1-yl)-butyl]-6,8-dioxo-octahydro-pyrazino[1,2-c]pyrimidine-2-carboxylic acid methyl ester], the Ki was determined as 0.0611 µM in experiment [1], 0.3 nM in experiment [2], 0.8 nM in experiment [3] and 1.7 nM in experiment [4].
Taken in the same sequence, the figures for `COC(=O)N1CCN2C(=O)N(CCCCN3CCN(c4nsc5ccccc45)CC3)C(=O)CC2C1` (stereo not shown) [Example 34, 7-[4-(4-Benzo[d]isothiazol-3-yl-piperazin-1-yl)-butyl]-6,8-dioxo-octahydro-pyrazino[1,2-c]pyrimidine-2-carboxylic acid methyl ester fumarate] were 0.152 µM, 1.3 nM, 0.5 nM and 2.4 nM.
Consider `CC(=O)N1CCN2C(=O)N(CCCCN3CCN(c4nsc5ccccc45)CC3)C(=O)C[C@@H]2C1` [Example 38, 2-Acetyl-7-[4-(4-benzo[d]isothiazol-3-yl-piperazin-1-yl)-butyl]-hexahydro-pyrazino[1,2-c]pyrimidine-6,8-dione fumarate], for which the inhibition constant (Ki) in experiment [1] stood at 0.953 µM; in experiment [3], 2.2 nM; in experiment [4], 4.5 nM.

For the origin of these results see patent publication US12391698B2, “Substituted piperidines and piperazines and methods for the treatment of CNS disorders” (SUVEN LIFE SCIENCES LIMITED, priority 2022, dated 2025).
